In patent US8039623B2, “Inhibitors of serine proteases, particularly HCV NS3-NS4A protease” (Vertex Pharmaceuticals Incorporated, priority 2003, dated 2011):

Target: HCV NS3-NS4A protease (tNS3 with KK4A) (Hepatitis C virus genotype 1a, UniProt P27958)
Assay: HCV Enzyme Assay Protocol (HPLC microbore separation of 5AB substrate and products)
Assay type: biochemical
Conditions: 25 nM tNS3, 25 μM KK4A, 25 μM 5AB substrate, 20 min at 30° C.; read-out: Ki range
Experimental: HCV Enzyme Assay Protocol
HPLC Microbore method for separation of 5AB substrate and products
• NH2-Glu-Asp-Val-Val-(alpha)Abu-Cys-Ser-Met-Ser-Tyr-COOH
A stock solution of 20 mM 5AB (or concentration of your choice) was made in DMSO w/0.2M DTT. This was stored in aliquots at −20° C.
Buffer: 50 mM HEPES, pH 7.8; 20% glycerol; 100 mM NaCl
Total assay volume was 100 μL
The buffer, KK4A, DTT, and tNS3 were combined; distributed 78 μL each into wells of 96 well plate. This was incubated at 30° C. for ˜5-10 min.
2.5 μL of appropriate concentration of test compound was dissolved in DMSO (DMSO only for control) and added to each well. This was incubated at room temperature for 15 min.
Initiated reaction by addition of 20 μL of 250 μM 5 AB substrate (25 μM concentration is equivalent or slightly lower than the Km for 5 AB).
Incubated for 20 min at 30° C.
Terminated reaction by addition of 25 μL of 10% TFA
Transferred 120 μL aliquots to HPLC vials
Separated SMSY product from substrate and KK4A by the following method:
Microbore Separation Method:
Instrumentation: Agilent 1100
• Degasser G1322A • Binary pump G1312A • Autosampler G1313A • Column thermostated chamber G1316A • Diode array detector G1315A Column • Phenonex Jupiter; 5 micron C18; 300 angstroms; 150×2 mm; P/O • 00F-4053-B0 • Column thermostat: 40 C • Injection volume: 100 μL • Solvent A=HPLC grade water+0.1% TFA • Solvent B=HPLC grade acetonitrile+0.1% TFA
• Stop time: 17 min • Post-run time: 10 min.

Chain of HCV NS3-NS4A protease (tNS3 with KK4A) (P27958 1658-1711): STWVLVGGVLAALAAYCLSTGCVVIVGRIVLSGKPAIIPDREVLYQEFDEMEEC
Chain of HCV NS3-NS4A protease (tNS3 with KK4A) (P27958 1027-1208): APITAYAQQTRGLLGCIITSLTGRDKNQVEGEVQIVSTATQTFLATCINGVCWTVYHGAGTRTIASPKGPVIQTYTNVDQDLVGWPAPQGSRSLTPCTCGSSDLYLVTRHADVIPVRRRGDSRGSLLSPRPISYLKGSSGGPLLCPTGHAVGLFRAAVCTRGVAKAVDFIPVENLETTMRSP

`CCC[C@H](NC(=O)[C@@H]1C[C@@H](Oc2ccc(Cl)cn2)CN1C(=O)[C@@H](NC(=O)[C@@H](NC(=O)c1cnccn1)C1CCCCC1)C(C)(C)C)C(=O)NS(=O)(=O)c1ccccc1` [Compound 2] and `CCC[C@H](NC(=O)[C@@H]1CC2(CN1C(=O)[C@@H](NC(=O)[C@@H](NC(=O)c1cnccn1)C1CCCCC1)C(C)(C)C)SCCCS2)C(=O)NS(=O)(=O)c1ccccc1` [Compound 1] cannot be ordered by Ki: over 5 µM for the first, over 5 µM for the second.

For `CCC[C@H](NC(=O)[C@@H]1CC2(CN1C(=O)[C@@H](NC(=O)[C@@H](NC(=O)c1[nH]c(C)c(C)c1C(C)=O)C1CCCCC1)C(C)(C)C)SCCCS2)C(=O)NS(=O)(=O)c1ccccc1` [Compound 3], the Ki was 1 to 5 µM.
